# Test results as given in patent US12064426B2, “Selective inhibitors of ROCK1 and ROCK2 protein kinases and uses thereof” (GENOSCO Inc., priority 2021, dated 2024).
# What was measured:
# [1] = molecular target: T1, Recombinant ROCK1 (amino acids 1-477) (Homo sapiens, UniProt Q13464); test: ROCK inhibition assay, LANCE Ultra TR-FRET kinase assay (ROCK1); assay type: biochemical; details: 1 μM ATP, 50 nM ULight-CREBtide substrate
# T1 construct: Recombinant ROCK1 (amino acids 1-477); by word order, ROCK1 from Carna Biosciences
# T1 sequence (Q13464 1-477): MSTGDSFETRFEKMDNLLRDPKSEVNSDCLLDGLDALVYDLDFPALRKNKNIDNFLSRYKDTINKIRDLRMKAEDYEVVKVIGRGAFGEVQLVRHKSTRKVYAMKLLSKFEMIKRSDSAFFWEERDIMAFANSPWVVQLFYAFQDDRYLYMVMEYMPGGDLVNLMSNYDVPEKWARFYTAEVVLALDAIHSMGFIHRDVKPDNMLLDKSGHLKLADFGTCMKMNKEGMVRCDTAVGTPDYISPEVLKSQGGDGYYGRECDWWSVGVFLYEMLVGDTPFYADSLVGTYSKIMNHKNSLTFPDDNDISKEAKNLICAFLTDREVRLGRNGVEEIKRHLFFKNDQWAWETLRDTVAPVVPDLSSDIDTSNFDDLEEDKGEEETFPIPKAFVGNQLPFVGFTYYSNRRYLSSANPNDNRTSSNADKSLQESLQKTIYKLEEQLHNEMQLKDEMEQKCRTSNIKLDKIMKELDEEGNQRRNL
# Method in brief: (§1)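 Reaction buffer 50 mM HEPES pH 7.5, 10 mM MgCl2, 1 mM EGTA, 2 mM DTT; kinase, ULight-CREBtide (50 nM) and ATP (ROCK1 1 μM, ROCK2 4 μM) react 1 h at room temperature. Phospho-Ser133 detected by europium antibody after 10 mM EDTA stop, TR-FRET ex 320 nm; IC50 calculated.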
# [2] = molecular target: T2, Recombinant ROCK2 (amino acids 5-554) (Homo sapiens, UniProt O75116); test: ROCK inhibition assay, LANCE Ultra TR-FRET kinase assay (ROCK2); assay type: biochemical; details: 4 μM ATP, 50 nM ULight-CREBtide substrate
# T2 construct: ROCK2 (amino acids 5-554); by word order, ROCK2 from SignalChem
# T2 sequence (O75116 5-554): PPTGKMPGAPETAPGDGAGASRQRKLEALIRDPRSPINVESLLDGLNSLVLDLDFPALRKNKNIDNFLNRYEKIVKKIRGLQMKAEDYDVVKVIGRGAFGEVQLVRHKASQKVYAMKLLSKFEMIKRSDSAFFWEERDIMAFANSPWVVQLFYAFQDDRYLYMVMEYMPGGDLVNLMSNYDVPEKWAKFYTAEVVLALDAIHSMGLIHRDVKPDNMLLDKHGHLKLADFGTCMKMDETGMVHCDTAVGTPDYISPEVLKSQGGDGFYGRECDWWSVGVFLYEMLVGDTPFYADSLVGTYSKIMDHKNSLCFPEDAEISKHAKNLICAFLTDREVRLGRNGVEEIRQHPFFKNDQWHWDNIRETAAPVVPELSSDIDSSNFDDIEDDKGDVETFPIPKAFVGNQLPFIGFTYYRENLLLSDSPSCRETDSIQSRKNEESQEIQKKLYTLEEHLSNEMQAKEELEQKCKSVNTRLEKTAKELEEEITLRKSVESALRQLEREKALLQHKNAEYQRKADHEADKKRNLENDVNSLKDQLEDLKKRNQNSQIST
# Method in brief: as §1
IC50 [1] [nM],IC50 [2] [nM],Structure (SMILES)
> 501,100 to 500,"COc1cccc(CN2CCc3cc(-c4cn[nH]c4)ccc3C2=O)c1 [Compound 1, 2-(3-methoxybenzyl)-6-(1H-pyrazol-4-yl)-3,4-dihydroisoquinolin-1(2H)-one]"
> 501,100 to 500,COc1cccc([C@@H](CO)N2CNc3cc(-c4ccnn4C)ccc3C2=O)c1 [Compound 531]
< 10,< 10,CC(O)c1cn(Cc2cccc(C(=O)NCCN(C)C)c2)c(=O)c2ccc(-c3c[nH]nc3Cl)cc12 (stereo not drawn) [Compound 542]
> 501,100 to 500,O=C(NC1CCOCC1)c1cc(F)cc(Cn2ccc3cc(N4CCOCC4)ccc3c2=O)c1 [Compound 211]
11 to 100,< 10,Cn1nccc1-c1ccc2c(=O)n(Cc3cccc(C(=O)NCc4ccc(F)nc4)c3)ccc2c1 [Compound 114]
101 to 500,10 to 100,O=C(NC1CC1)c1cccc(Cn2ccc3cc(-c4c[nH]nc4C(F)(F)F)ccc3c2=O)c1 [Compound 50]
101 to 500,10 to 100,Cc1nocc1-c1ccc2c(=O)n(Cc3cccc(C(=O)N[C@H]4C[C@@H](O)C4)c3)ccc2c1 [Compound 72]
11 to 100,10 to 100,Cc1nocc1-c1ccc2c(=O)n(Cc3cccc(NC(=O)c4ccc(F)cc4)c3)ccc2c1 [Compound 349]
< 10,< 10,CN1CCC(NC(=O)c2cccc(Cn3ccc4cc(-c5ccnn5C)ccc4c3=O)c2)CC1 [Compound 106]
> 501,> 500,O=C(Nc1ccno1)c1cccc(Cn2ccc3cc(N4CCOCC4)ccc3c2=O)c1 [Compound 206]
101 to 500,< 10,O=C(NC1CCN(CC(F)F)CC1)c1cccc(Cn2ccc3cc(-c4c[nH]nc4C(F)(F)F)ccc3c2=O)c1 [Compound 49]
11 to 100,< 10,CNC(=O)c1cc(F)cc([C@@H](C)n2cnc3cc(-c4cn[nH]c4C(F)(F)F)ccc3c2=O)c1 [Compound 454]
11 to 100,< 10,CCNC(=O)c1cc(F)cc(Cn2ccc3cc(-c4c[nH]nc4C)ncc3c2=O)c1 [Compound 254]
11 to 100,< 10,O=C(CCc1ccccn1)Nc1cccc(Cn2ccc3cc(-c4c[nH]nc4C(F)(F)F)ccc3c2=O)c1 [Compound 340]
11 to 100,< 10,Cn1ccc(NC(=O)c2cccc(Cn3ccc4cc(-c5cn[nH]c5C(F)(F)F)ccc4c3=O)c2)n1 [Compound 43]
101 to 500,10 to 100,Cc1nocc1-c1ccc2c(=O)n(Cc3cccc(C(=O)NCC4CCN(C5COC5)CC4)c3)ccc2c1 [Compound 84]
101 to 500,10 to 100,O=c1c2ccc(-c3c[nH]nc3C(F)(F)F)cc2ccn1Cc1cccc(O)c1 [Compound 7]
11 to 100,< 10,[2H]C([2H])([2H])NC(=O)c1cccc(Cn2ccc3cc(-c4c[nH]nc4Cl)ncc3c2=O)c1 [Compound 236]
11 to 100,< 10,Cc1nocc1-c1ccc2c(=O)n(Cc3cccc(C(=O)NCC4CCOCC4)c3)cnc2c1 [Compound 416]
11 to 100,< 10,NCC(c1cccc(Cl)c1)n1cnc2cc(-c3ccnc(N)c3)ccc2c1=O (stereo not drawn) [Compound 493]
101 to 500,10 to 100,CNC(=O)c1cc(F)cc(Cn2ccc3cc(-c4ccnc(N)c4)ncc3c2=O)c1 [Compound 251]
11 to 100,10 to 100,Cn1nccc1-c1cc2ccn(Cc3cc(F)cc(C(=O)NCC4CCOCC4)c3)c(=O)c2cn1 [Compound 270]
101 to 500,10 to 100,O=C(NCc1ccccc1)c1cccc(Cn2cnc3cc(-c4cn[nH]c4C(F)(F)F)ccc3c2=O)c1 [Compound 371]

IC50 [1] [nM],IC50 [2] [nM],Structure (SMILES)
11 to 100,< 10,CN1CCN(CCNC(=O)c2cc(F)cc(Cn3ccc4cc(-c5ccnn5C)ncc4c3=O)c2)CC1 [Compound 268]
11 to 100,< 10,Cn1nccc1-c1ccc2c(=O)n(Cc3cc(F)cc(C(=O)NCc4ccc(F)nc4)c3)ccc2c1 [Compound 174]
101 to 500,10 to 100,NS(=O)(=O)c1ccc(NC(=O)c2cc(F)cc(Cn3ccc4cc(-c5c[nH]nc5C(F)(F)F)ccc4c3=O)c2)cc1 [Compound 127]
101 to 500,10 to 100,CNC(=O)c1cncc(Cn2ccc3cc(-c4conc4C)ccc3c2=O)c1 [Compound 312]
101 to 500,10 to 100,CC(c1cccc(O)c1)n1ccc2cc(-c3c[nH]nc3C(F)(F)F)ccc2c1=O (stereo not drawn) [Compound 8]
101 to 500,10 to 100,CC(C)NC(=O)c1cccc(Cn2ccc3cc(-c4cn[nH]c4)ccc3c2=O)c1 [Compound 28]
> 501,100 to 500,O=C1c2ccc(-c3cn[nH]c3Cl)cc2NCN1[C@H](CO)c1cccc(Cl)c1 [Compound 525]
11 to 100,10 to 100,O=C(NCCO)c1cccc(Cn2cnc3cc(-c4cn[nH]c4C(F)(F)F)ccc3c2=O)c1 [Compound 384]
< 10,< 10,CN1CCC(CNC(=O)c2cccc(Cn3ccc4cc(-c5c[nH]nc5C(F)F)ccc4c3=O)c2)CC1 [Compound 56]
11 to 100,< 10,Cc1nocc1-c1ccc2c(=O)n(Cc3cccc(C(=O)NCC(F)(F)F)c3)cnc2c1 [Compound 421]
11 to 100,10 to 100,Cc1nocc1-c1ccc2c(=O)n(Cc3cccc(C(=O)NCC4CC4)c3)ccc2c1 [Compound 68]
> 501,100 to 500,"CC(=O)Nc1cccc(Cn2ccc3cc(-c4ccoc4C)ccc3c2=O)c1 [Compound 332, N-(3-((6-(2-methylfuran-3-yl)-1-oxoisoquinolin-2(1H)-yl)methyl)phenyl)acetamide]"
> 501,100 to 500,CNC(=O)c1cccc(Cn2ccc3cc(-c4conc4C)cnc3c2=O)c1 [Compound 243]
11 to 100,< 10,[2H]C([2H])([2H])NC(=O)c1cccc([C@@H](C)n2cnc3cc(-c4cn[nH]c4N)ccc3c2=O)c1 [Compound 519]
> 501,100 to 500,Nc1cc(-c2ccc3c(=O)n(Cc4cccc(C(=O)Nc5ncc[nH]5)c4)ccc3c2)ccn1 [Compound 199]
11 to 100,< 10,Cc1nocc1-c1ccc2c(=O)n(Cc3cccc(C(=O)Nc4nc5c(s4)CCN(C(C)C)C5)c3)ccc2c1 [Compound 95]
11 to 100,10 to 100,COc1cccc(Cn2cnc3cc(-c4conc4C)ccc3c2=O)c1 [Compound 357]
11 to 100,100 to 500,O=C(NC1COC1)c1cccc(Cn2ccc3cc(N4CCOCC4)ccc3c2=O)c1 [Compound 207]
11 to 100,< 10,O=C(N[C@H]1CC[C@@H](O)CC1)c1cccc(Cn2cnc3cc(-c4cn[nH]c4C(F)(F)F)ccc3c2=O)c1 [Compound 382]
11 to 100,< 10,[2H]C([2H])([2H])NC(=O)c1cccc(Cn2ccc3cc(-c4cn[nH]c4C(F)(F)F)ccc3c2=O)c1 [Compound 278]
11 to 100,< 10,Cc1nocc1-c1ccc2c(=O)n([C@H](C)c3cccc(C(=O)NCCN4CCOCC4)c3)cnc2c1 [Compound 474]
> 501,100 to 500,CC(=O)Nc1cc(F)cc(Cn2ccc3cc(-c4ccnc(N)c4)ccc3c2=O)c1 [Compound 353]
